Results published in patent publication US20040101834A1, “Method of and kit for assessing responsiveness of cancer patients to antifolate chemotherapy” (priority 2001, published 2004).
Residue numbers refer to the chain shown, from its start. Names may count otherwise. Like-named read-outs stand apart in the source and are kept apart here. Marks after values point to notes of the source that are not given here.

Key:
[1] = molecular target: T1, RFC in GW70 cells (Homo sapiens, UniProt P41440, E45K/H27R/S46I/V29L); assay: [3H]MTX and [3H]folic acid transport; format: cell-based; details: GW70 vs parental CEM
T1 construct: endogenous in cells; host or cells: CEM-GW70 (GW1843U89-resistant CCRF-CEM subline)
T1 sequence (P41440 1-591 H27R/V29L/E45K/S46I): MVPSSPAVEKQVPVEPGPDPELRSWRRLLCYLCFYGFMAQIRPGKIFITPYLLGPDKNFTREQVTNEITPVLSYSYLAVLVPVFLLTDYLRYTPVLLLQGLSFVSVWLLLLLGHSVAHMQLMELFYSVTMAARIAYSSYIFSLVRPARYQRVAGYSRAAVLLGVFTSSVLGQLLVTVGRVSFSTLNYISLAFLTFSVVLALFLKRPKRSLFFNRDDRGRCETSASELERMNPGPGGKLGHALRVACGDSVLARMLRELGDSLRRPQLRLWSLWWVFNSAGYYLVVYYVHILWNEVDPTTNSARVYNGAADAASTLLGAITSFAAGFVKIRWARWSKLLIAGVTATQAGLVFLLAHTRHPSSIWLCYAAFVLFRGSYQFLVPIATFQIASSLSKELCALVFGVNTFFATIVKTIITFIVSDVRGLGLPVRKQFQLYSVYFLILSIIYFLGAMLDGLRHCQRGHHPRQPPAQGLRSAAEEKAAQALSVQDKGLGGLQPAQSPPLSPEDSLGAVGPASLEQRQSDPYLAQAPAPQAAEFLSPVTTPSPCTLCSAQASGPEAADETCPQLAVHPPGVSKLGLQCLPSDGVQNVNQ
Description: At selected transport time intervals, ranging from 0.5-30 minutes, uptake was terminated by the addition of 10 ml ice-cold HBSS, after which centrifugation and cell wash with another 10 ml ice-cold HBSS were performed. The final cell pellet was then counted for radioactivity.

[2] = test system: parental human CEM leukemia cells (CEM/WT); assay: Antifolate growth inhibition, 72 h drug exposure; format: cell-based
[3] = test system: GW70 cells (GW1843U89-resistant CEM subline); assay: Antifolate growth inhibition, 72 h drug exposure; format: cell-based, human; details: for sensitivity relative to parental CEM cells: lipid-soluble antifolates
[4] = test system: GW70/LF cells; assay: Antifolate growth inhibition, 72 h drug exposure; format: cell-based
Description: The GW70 subline was established by stepwise exposure of parental CEM cells to gradually increasing concentrations of the potent thymidylate synthase inhibitor, GW1843U89 in normal growth medium; this selection was initiated at 1.5 nM and terminated at 70 nM GW1843U89, the cells were therefore termed GW70. GW70/LF cells were established by gradual deprivation of folic acid from the growth medium; this was terminated at a concentration of 5 nM folic acid.

[5] = molecular target: T2, human RFC (Homo sapiens, UniProt P41440); details: Westerhof et al., 1995; read-out: Ki as transport substrate; cited from earlier work
T2 sequence (P41440 1-591): T1 sequence (P41440 1-591 H27R/V29L/E45K/S46I) with R27H, L29V, K45E, I46S

[6] = test system: parental human CEM leukemia cells (CEM/WT); assay: Folate growth requirement; format: cell-based; details: read-out: EC50, concentration necessary to support 50% of maximal growth, Table 6
Description: (§1) Table 6 below summarizes the antifolate growth inhibition and folate growth requirement in parental human CEM leukemia cells and their GW70 subline.

[7] = test system: GW70 cells (GW1843U89-resistant CEM subline); assay: Folate growth requirement; format: cell-based, human; details: Homo sapiens, read-out: EC50, concentration necessary to support 50% of maximal growth; Table 6; column GW (GW70)
Description: as §1

[8] = test system: mouse MTX^rA leukemia transfectant harboring Glu45Lys RFC cDNA; assay: Folate growth requirement in RFC transfectants; format: cell-based
Description: (§2) Thereafter, cells were washed twice with serum-free folic acid-free medium, in order to eliminate GAT. […] Thereafter, cells were exposed continuously to various concentrations of leucovorin or folic acid for 72 hours, following which cell numbers were determined by hemocytometer count of viable cells, using trypan blue exclusion.

[9] = test system: mouse MTX^rA leukemia transfectant harboring His27/His56 RFC cDNA; assay: Folate growth requirement in RFC transfectants; format: cell-based
Description: as §2

[10] = test system: mouse MTX^rA leukemia transfectant harboring Arg27/His56 RFC cDNA; assay: Folate growth requirement in RFC transfectants; format: cell-based
Description: as §2

[11] = test system: mouse MTX^rA leukemia transfectant harboring His27 RFC cDNA; assay: Folate growth requirement in RFC transfectants; format: cell-based
Description: as §2

[12] = test system: mouse MTX^rA leukemia transfectant harboring native RFC (Arg27) cDNA; assay: Folate growth requirement in RFC transfectants; format: cell-based
Description: as §2

[13] = molecular target: TS (Mus musculus, UniProt P07607); details: Jackman, 1991; cited from earlier work
Sequence of TS (P07607 whole entry): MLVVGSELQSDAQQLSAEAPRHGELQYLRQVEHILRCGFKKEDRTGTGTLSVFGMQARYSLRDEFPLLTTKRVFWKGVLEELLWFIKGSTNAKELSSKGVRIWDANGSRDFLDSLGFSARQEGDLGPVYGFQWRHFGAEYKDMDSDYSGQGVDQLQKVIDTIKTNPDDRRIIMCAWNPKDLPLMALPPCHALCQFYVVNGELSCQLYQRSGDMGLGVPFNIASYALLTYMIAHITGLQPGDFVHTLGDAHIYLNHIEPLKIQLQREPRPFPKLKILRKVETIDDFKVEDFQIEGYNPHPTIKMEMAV

[14] = substrate: CN(Cc1cnc2nc(N)nc(N)c2n1)c1ccc(C(=O)N[C@@H](CCC(=O)O)C(=O)O)cc1; assay: cells, lysate or membranes; details: other: CEM/GW70; influx, initial (3 min) uptake rates, Lineweaver-Burk; pH 7.4; 37.0 °C
[15] = substrate: Nc1nc2ncc(CNc3ccc(C(=O)N[C@@H](CCC(=O)O)C(=O)O)cc3)nc2c(=O)[nH]1; assay: cells, lysate or membranes; format: cell-based, human; details: influx, initial (3 min) uptake rates, Lineweaver-Burk, pH 7.4, 37.0 °C
[16] = substrate: CN(Cc1cnc2nc(N)nc(N)c2n1)c1ccc(C(=O)N[C@@H](CCC(=O)O)C(=O)O)cc1; assay: cells, lysate or membranes; format: cell-based, human; details: other: CEM/GW70-LF; influx, initial (3 min) uptake rates, Lineweaver-Burk; pH 7.4; 37.0 °C
[17] = Table 10, CEM/WT, 72 h drug exposure, read-out: IC50
[18] = Table 10, GW70, 72 h drug exposure, read-out: IC50
[19] = Table 10, GW70/LF, read-out: IC50
[20] = Homo sapiens, 72 h, Table 10, GW70/LF
[21] = Homo sapiens, 72 h, Table 10, GW70/LF grown in the presence of 2.3 µM folic acid
[22] = Homo sapiens, 72 h, read-out: IC50, antifolate concentration that inhibits cell growth by 50%
[23] = Homo sapiens, Table 10, CEM/WT, 72 h drug exposure, read-out: IC50
[24] = Mus musculus, read-out: EC50, concentration necessary to support 50% of maximal growth of control cells

In the case of `CN1c2c(nc(N)[nH]c2=O)NCC1CNc1ccc(C(=O)N[C@@H](CCC(=O)O)C(=O)O)cc1` (some centres unmarked) [5-methyl-THF, 5-methyltetrahydrofolate], the “fold increased affinity of RFC” value [1] is reported as 3 fold.

In the case of `Cc1ccc2nc(N)[nH]c(=O)c2c1Sc1ccncc1` [AG337], the IC50 [2, 17] is reported as 1800 ± 340 nM, the “sensitivity relative to parental CEM cells” value ([3]; GW70) is reported as “collaterally more sensitive than parental CEM cells” and the IC50 [3, 18] is reported as 974 ± 241 nM. The IC50 ([4]; Table 10, GW70/LF grown in the presence of 2.3 µM folic acid, read-out: IC50) was 2220 ± 264 nM and the IC50 [4, 19] was 920 ± 430 nM.

In the case of `Nc1nc2c(c(=O)[nH]1)CC(CCc1ccc(C(=O)N[C@@H](CCC(=O)O)C(=O)O)cc1)CN2` (some centres unmarked) [DDATHF, 5,10-dideazatetrahydrofolic acid], the IC50 ([2]; Homo sapiens, 72 h) is reported as 11 ± 4 nM, the IC50 ([3]; Homo sapiens, 72 h) is reported as 360 ± 106 nM and the IC50 [4, 20] is reported as 8.2 ± 1.7 nM. The IC50 [4, 21] was greater than 10000 nM.

In the case of `Cc1nc2ccc3ccc(CNc4ccc5c(c4)CN([C@@H](CCC(=O)O)C(=O)O)C5=O)cc3c2c(=O)[nH]1` [GW1843], the IC50 [2, 22] is reported as 1.8 ± 0.22 nM, the IC50 [2, 23] is reported as 2.4 ± 0.4 nM and the “fold resistance / cross-resistance” value ([3]; GW70 vs parental CEM cells) is reported as 100 fold. It also gave an IC50 ([3]; Homo sapiens, 72 h) of 123 ± 48 nM, an IC50 [3, 22] of 172 ± 34.5 nM and an IC50 [4, 20] of 2.5 ± 0.7 nM. For the same molecule, the IC50 [4, 21] was 7.5 ± 1.5 nM, the “fold decreased affinity of RFC” value [1] was 6 fold and the Ki [5] was 800 nM.

With `Nc1nc2c(c(=O)[nH]1)N(C=O)C(CNc1ccc(C(=O)N[C@@H](CCC(=O)O)C(=O)O)cc1)CN2` (some centres unmarked) [Leucovorin, 5-formyltetrahydrofolate] the EC50 [6] was 0.51 ± 0.08 nM, the EC50 [7] was 2.4 ± 1.1 nM and the “MTX IC50/leucovorin EC50 ratio” value ([8]; Glu45Lys transfectant, in parentheses) was “(1.17)”. For the same molecule, the EC50 [8, 24] was 0.65 ± 0.15 nM, the EC50 [9, 24] was 0.42 ± 0.1 nM and the “MTX IC50/leucovorin EC50 ratio” value ([9]; in parentheses) was “(1.81)”. For the same molecule, the EC50 [10, 24] was 0.7 ± 0.14 nM, the “MTX IC50/leucovorin EC50 ratio” value ([10]; in parentheses) was “(1.32)” and the EC50 [11, 24] was 0.78 ± 0.09 nM. For the same molecule, the “MTX IC50/leucovorin EC50 ratio” value ([11]; in parentheses) was “(0.97)”, the “MTX IC50/leucovorin EC50 ratio” value ([12]; Arg27 transfectant, in parentheses) was “(1)^c” and the EC50 ([12]; Mus musculus, read-out: EC50, concentration necessary to support 50% of maximal growth of control cells, Arg27 (native RFC) transfectant) was 0.76 ± 0.03 nM.

In the case of `Nc1nc2[nH]cc(CCc3ccc(C(=O)N[C@@H](CCC(=O)O)C(=O)O)cc3)c2c(=O)[nH]1` [MTA], the IC50 [2, 23] is reported as 23 ± 7 nM, the IC50 ([3]; Homo sapiens, 72 h) is reported as 351 ± 73 nM and the IC50 [4, 20] is reported as 4.6 ± 0.6 nM. For the same molecule, the IC50 [4, 21] was 221 ± 47 nM.

With `Nc1nc(N)c2nc(CNc3ccc(C(=O)N[C@@H](CCCNC(=O)c4ccccc4C(=O)O)C(=O)O)cc3)cnc2n1` [PT523] the IC50 [2, 17] was 1.1 ± 0.3 nM, the IC50 [3, 18] was 81 ± 16 nM and the IC50 [4, 19] was 1.4 ± 0.1 nM.

In the case of `COc1cc(NCc2ccc3nc(N)nc(N)c3c2C)cc(OC)c1OC` [TMQ], the IC50 [2, 23] is reported as 7.5 ± 2.1 nM, the “sensitivity relative to parental CEM cells” value ([3]; GW70, listed as trimetraxate) is reported as “hypersensitive” and the “sensitivity relative to parental CEM cells” value ([3]; GW70, listed as trimetrexate) is reported as “collaterally more sensitive than parental CEM cells”. It also gave an IC50 ([3]; Homo sapiens, 72 h) of 7.2 ± 1.7 nM and an IC50 [4, 20] of 1.1 ± 0.2 nM.

`Cc1nc2ccc(CN(C)c3ccc(C(=O)N[C@@H](CCC(=O)O)C(=O)O)s3)cc2c(=O)[nH]1` [ZD1694] showed an IC50 [2, 23] of 3.5 ± 0.6 nM, an IC50 ([3]; Homo sapiens, 72 h) of 515 ± 224 nM and an IC50 ([4]; Homo sapiens, 72 h, Table 10, GW70/LF grown in the presence of 2.3 µM folic acid, read-out: IC50) of 389 ± 55 nM. The IC50 ([4]; Homo sapiens, 72 h, Table 10, GW70/LF, read-out: IC50) was 3.2 ± 0.5 nM and the Ki [13] was 60 nM.

In the case of `C#CCN(Cc1cc2c(=O)[nH]c(C)nc2cc1C)c1ccc(C(=O)N[C@@H](CCc2nnn[nH]2)C(=O)O)c(F)c1` [ZD9331], the IC50 ([2]; Homo sapiens, 72 h) is reported as 16 ± 1 nM, the IC50 ([3]; Homo sapiens, 72 h) is reported as 479 ± 67 nM and the IC50 [4, 20] is reported as 25 ± 6 nM. The IC50 [4, 21] was 12 ± 4 nM.

B1: RFC in GW70 cells (Homo sapiens; E45K/H27R/S46I/V29L) (protein)
chain: T1 sequence (P41440 1-591 H27R/V29L/E45K/S46I)
notes: endogenous in cells; host or cells: CEM-GW70 (GW1843U89-resistant CCRF-CEM subline)
B1 gave a Km [14] of 16 ± 3.9 µM and a Km ([15]; other: CEM/GW70) of 16.5 ± 3.4 µM.

B2: RFC in GW70/LF cells (Homo sapiens; D88H/E45K/H27R/S46I/V29L) (protein)
chain: T1 sequence (P41440 1-591 H27R/V29L/E45K/S46I) with D88H
notes: a prominent overproduction of the native ˜80 kDa and truncated 43 kDa RFC proteins; endogenous in cells; host or cells: GW70/LF (GW70 cells adapted to low folate; 5-fold RFC gene amplification)
Work on B2 yielded a Km [16] of 17.1 ± 1.2 µM and a Km ([15]; other: CEM/GW70-LF) of 15.5 ± 2.5 µM.
